Measured values as given in US20230321124A1, “ROR gamma t Inhibitors and Topical Uses Thereof” (DERMIRA, INC., priority 2020, published 2023).

System: IL-17A protein
Experiment: skin Resident Immune Cell Assay (sRICA), Th17 model, human skin biopsies
Type: cell-based
Settings: Example 2, FIG. 1; 10 ul topical, overnight; media harvested 48 hours after activation; N=6
Description: A skin Resident Immune Cell Assay (sRICA) was used to test Compounds 1, 2 and 3 in Formulations as identified in Example 1 for reduction of IL-17A protein upregulation in the Th17 sRICA model. In this model, human surgical skin waste was cultured in a transwell system, with the dermis in contact with cell culture media and the stratum corneum exposed to air. To perform the assay, each human skin sample was defatted and dermatomed to 750 μm. Next, 8 mm punch biopsies were obtained and placed in a membrane transwell. The biopsies were prepared with a barrier ring to contain the formulation and prevent leakage of the formulation. […]
10 ul of the test solvent system was applied to topically prepared sRICA samples and allowed to penetrate the skin overnight. […] An unpaired, two-tailed students T-test was used to determined statistical significance between Th17 treated skin and treatment groups. The performance of the 3 RORγt inhibitors in Formulations representative of creams (Formulations 3-7), aqueous gels (Formulation 8), non-aqueous gels (Formulations 9-10), and ointments (Formulation 11) were evaluated.
All formulations of containing Compound 1 or Compound 2 were created at 80% saturation, except for all non-aqueous gels (NAG) in which saturation has not yet been determined (>12%) and were arbitrarily formulated at 1% or 5% (see Formulation 10 (1%) and Formulation 10 (5%) in Tables 6 and 7). […]

C[C@H]1C[C@H]2[C@@H]3CCC4=CC(=O)C=C[C@]4(C)[C@@]3(F)[C@@H](O)C[C@]2(C)[C@@]1(O)C(=O)CCl [Clobetasol]
Th17-cocktail induced IL17A protein in culture media: complete suppression
